Here are results for eight molecules from PubChem BioAssay AID1745844 (Carcinogenic Potency Database (CPDB), 2022).

The subject of this series is rodent lifetime carcinogenesis bioassay, tumor incidence TD50. The series can be described thus: carcinogenic potency in animals, long-term in vivo studies, CPDB compilation (AID 1745844).

Structures are written as SMILES. Values joined by “and” are separate entries in the source; they are usually repeats but may differ in a detail not shown here. Identical values can stand only once. Active and inactive are the calls of the source. How the calls were made is not given here.

By TD50 is commonly meant the dose at which the toxic effect under study appears in half of the subjects. Regarding `Cc1cc(N=Nc2c(O)ccc3ccccc23)c(S(=O)(=O)O)cc1Cl`, the TD50 reads like this: (mouse, strain B6C3F1, females, in feed, site: any site (literature study), lesion: several types, types named in the paper, dosed 103 weeks, study length 105 weeks) 18200 mg/kg/day (inactive); (mouse, strain B6C3F1, females, in feed, site: liver, lesion: hepatocellular adenoma + hepatocellular carcinoma + neoplastic nodule, dosed 103 weeks, study length 105 weeks) 9240 mg/kg/day; (mouse, strain B6C3F1, females, in feed, site: lung, lesion: alveolar/bronchiolar adenoma + alveolar/bronchiolar carcinoma, dosed 103 weeks, study length 105 weeks) 9200 mg/kg/day; (mouse, strain B6C3F1, males, in feed, site: any site (literature study), lesion: several types, types named in the paper, dosed 103 weeks, study length 104 weeks) 2120 mg/kg/day (inactive); (mouse, strain B6C3F1, males, in feed, site: liver, lesion: hepatocellular adenoma + hepatocellular carcinoma + neoplastic nodule, dosed 103 weeks, study length 104 weeks) 781 mg/kg/day; (mouse, strain B6C3F1, males, in feed, site: lung, lesion: alveolar/bronchiolar adenoma + alveolar/bronchiolar carcinoma, dosed 103 weeks, study length 104 weeks) 5390 mg/kg/day. For the same molecule, the TD50 (rat, strain Fischer 344, females, in feed, site: liver, lesion: hepatocellular adenoma + hepatocellular carcinoma + neoplastic nodule, dosed 103 weeks, study length 104 weeks) came to 1140 mg/kg/day; the TD50 (rat, strain Fischer 344, females, in feed, site: liver, lesion: neoplastic nodule, dosed 103 weeks, study length 104 weeks) was 1140 mg/kg/day; the TD50 (rat, strain Fischer 344, males, in feed, site: any site (literature study), lesion: several types, types named in the paper, dosed 103 weeks, study length 104 weeks) is 331 mg/kg/day; the TD50 (rat, strain Fischer 344, males, in feed, site: liver + spleen, lesion: hepatocellular carcinoma + neoplastic nodule + fibrosarcoma + leiomyosarcoma + osteosarcoma + sarcoma, NOS, dosed 103 weeks, study length 104 weeks) was 104 mg/kg/day; the TD50 (rat, strain Fischer 344, males, in feed, site: liver, lesion: hepatocellular adenoma + hepatocellular carcinoma + neoplastic nodule, dosed 103 weeks, study length 104 weeks) was 357 mg/kg/day; the TD50 (rat, strain Fischer 344, males, in feed, site: liver, lesion: hepatocellular carcinoma + neoplastic nodule, dosed 103 weeks, study length 104 weeks) is 357 mg/kg/day. For the same molecule, the TD50 is 265 mg/kg/day (rat, strain Fischer 344, males, in feed, site: liver, lesion: neoplastic nodule, dosed 103 weeks, study length 104 weeks); 146 mg/kg/day (rat, strain Fischer 344, males, in feed, site: spleen, lesion: fibrosarcoma + leiomyosarcoma + osteosarcoma + sarcoma, NOS, dosed 103 weeks, study length 104 weeks); 211 mg/kg/day (rat, strain Fischer 344, males, in feed, site: spleen, lesion: fibrosarcoma, dosed 103 weeks, study length 104 weeks); 728 mg/kg/day (rat, strain Fischer 344, males, in feed, site: spleen, lesion: osteosarcoma, dosed 103 weeks, study length 104 weeks); 28600 mg/kg/day (inactive) (rat, strain Osborne-Mendel, males, in feed, site: testis, lesion: interstitial-cell adenoma, dosed 108 weeks, study length 108 weeks). Also, the carcinogen call (rat, strain Osborne-Mendel, females, in feed, site: pituitary gland, lesion: adenoma, dosed 108 weeks, study length 108 weeks) was “negative (inactive)” and the carcinogen call (rat, strain Osborne-Mendel, males, in feed, site: all sites, lesion: fibrosarcoma, dosed 108 weeks, study length 108 weeks) is “negative (inactive)”.

As for `O=C(O)c1cc(=O)[nH]c(=O)[nH]1`, the TD50 is, setting by setting: (rat, strain Fischer 344, males, in feed, site: Zymbal's gland, lesion: one or several types, types not named, dosed 104 weeks, study length 104 weeks) 2600 mg/kg/day; (rat, strain Fischer 344, males, in feed, site: all sites, lesion: leukemia, dosed 104 weeks, study length 104 weeks) 1690 mg/kg/day; (rat, strain Fischer 344, males, in feed, site: liver, lesion: hepatocellular adenoma, dosed 52 weeks, study length 52 weeks) 925 mg/kg/day; (rat, strain Fischer 344, males, in feed, site: liver, lesion: hepatocellular adenoma, dosed 104 weeks, study length 104 weeks) 395 mg/kg/day.

In the case of `CC(=O)Nc1nc(-c2ccc([N+](=O)[O-])o2)cs1`, the TD50 was 68.1 mg/kg/day (hamster, strain Syrian Golden, males, in feed, site: forestomach, lesion: squamous-cell papilloma, dosed 48 weeks, study length 70 weeks); 8.91 mg/kg/day (hamster, strain Syrian Golden, males, in feed, site: urinary bladder, lesion: several types, types named in the paper, dosed 48 weeks, study length 70 weeks); 60.2 mg/kg/day (hamster, strain Syrian Golden, males, in feed, site: urinary bladder, lesion: squamous-cell carcinoma, dosed 48 weeks, study length 70 weeks); 316 mg/kg/day and 660 mg/kg/day (rat, strain Sprague-Dawley, females, in feed, site: kidney/pelvis, lesion: transitional-cell carcinoma, dosed 46 weeks, study length 66 weeks); 36.2 mg/kg/day (rat, strain Sprague-Dawley, females, in feed, site: mammary gland, lesion: adenocarcinoma, dosed 46 weeks, study length 66 weeks); 56.9 mg/kg/day and 25 mg/kg/day and 30.2 mg/kg/day (rat, strain Sprague-Dawley, females, in feed, site: mammary gland, lesion: fibroadenoma, dosed 46 weeks, study length 66 weeks). Besides, under “rat, strain Sprague-Dawley, females, in feed, site: mammary tissue, wider than the gland, lesion: several types, types named in the paper, dosed 46 weeks, study length 66 weeks”, the TD50 was 10.5 mg/kg/day.

As to `Nc1ccc([N+](=O)[O-])cc1O`, the TD50 is, setting by setting: (mouse, strain B6C3F1, females, by gavage, site: any site (literature study), lesion: several types, types named in the paper, dosed 103 weeks, study length 104 weeks) 5760 mg/kg/day (inactive); (mouse, strain B6C3F1, females, by gavage, site: lung, lesion: alveolar/bronchiolar adenoma + alveolar/bronchiolar carcinoma, dosed 103 weeks, study length 104 weeks) 807000 mg/kg/day; (rat, strain Fischer 344, males, by gavage, site: adrenal medulla, lesion: pheochromocytoma + pheochromocytoma, malignant, dosed 103 weeks, study length 104 weeks) 101 mg/kg/day; (rat, strain Fischer 344, males, by gavage, site: any site (literature study), lesion: several types, types named in the paper, dosed 103 weeks, study length 104 weeks) 33.6 mg/kg/day; (rat, strain Fischer 344, males, by gavage, site: liver, lesion: hepatocellular adenoma + hepatocellular carcinoma + neoplastic nodule, dosed 103 weeks, study length 104 weeks) 1560 mg/kg/day; (rat, strain Fischer 344, males, by gavage, site: pancreas, lesion: acinar-cell adenoma, dosed 103 weeks, study length 104 weeks) 111 mg/kg/day. In addition, the TD50 is, setting by setting: (rat, strain Fischer 344, males, by gavage, site: pancreas, lesion: acinar-cell carcinoma + acinar-cell adenoma, dosed 103 weeks, study length 104 weeks) 107 mg/kg/day; (rat, strain Fischer 344, males, by gavage, site: pancreatic islets, lesion: islet-cell carcinoma, dosed 103 weeks, study length 104 weeks) 393 mg/kg/day; (rat, strain Fischer 344, males, by gavage, site: preputial gland, lesion: adenoma, NOS + carcinoma, NOS, dosed 103 weeks, study length 104 weeks) 392 mg/kg/day; (rat, strain Fischer 344, males, by gavage, site: preputial gland, lesion: carcinoma, NOS, dosed 103 weeks, study length 104 weeks) 562 mg/kg/day; (rat, strain Fischer 344, males, by gavage, site: testis, lesion: interstitial-cell tumor, dosed 103 weeks, study length 104 weeks) 28.6 mg/kg/day. The carcinogen call is “negative (inactive)” (mouse, strain B6C3F1, males, by gavage, site: any site (literature study), lesion: several types, types named in the paper, dosed 103 weeks, study length 104 weeks) and “negative (inactive)” (rat, strain Fischer 344, females, by gavage, site: any site (literature study), lesion: several types, types named in the paper, dosed 103 weeks, study length 104 weeks).

With `O=[N+]([O-])c1ccc(-c2cscn2)o1`, the TD50 by setting is: (rat, strain Sprague-Dawley albino, females, in feed, site: any site (literature study), lesion: several types, types named in the paper, dosed 46 weeks, study length 68 weeks) 7.68 mg/kg/day; (rat, strain Sprague-Dawley albino, females, in feed, site: forestomach, lesion: squamous-cell carcinoma, dosed 46 weeks, study length 68 weeks) 19.5 mg/kg/day; (rat, strain Sprague-Dawley albino, females, in feed, site: mammary gland, lesion: fibroadenoma, dosed 46 weeks, study length 68 weeks) 15.6 mg/kg/day.

For `COc1cc(/C=C/C(=O)OCCc2ccccc2)ccc1O`, for the setting “rat, strain Fischer 344, males, in feed, site: colon, lesion: one or several types, types not named, dosed 55 weeks, study length 55 weeks”, the carcinogen call was “negative (inactive)”.

Take `C/C=C1/C[C@@H](C)[C@@](C)(O)C(=O)OC/C2=C/CN(C)CC[C@@H](OC1=O)C2=O`: the TD50 (rat, strain ACI, males, i.p., site: liver, lesion: liver-cell adenoma, dosed 56 weeks, study length 92 weeks) was 1.7 mg/kg/day.

Regarding `CC(C)(C)NC(=O)[C@H]1CC[C@H]2[C@@H]3CC[C@H]4NC(=O)C=C[C@]4(C)[C@H]3CC[C@]12C`, the TD50 (mouse, strain Charles River CD1, males, by gavage, site: testis, lesion: Leydig-cell adenoma, dosed 83 weeks, study length 83 weeks) was 326 mg/kg/day.
